Assay results taken from article PMC10177380 (Cancers, 2023).
“And” between values parts separate entries of the source, which are not always exact repeats. Identical values can stand only once. Like-named read-outs stand apart in the source and are kept apart here.

Assays:
MIA pancreas = test: MTT growth inhibition, 72 h, MIA; type: cell-based
HT29 colon cells = test: ROS production, DCFDA/H2DCFDA cellular ROS assay; type: cell-based, human; conditions: treatment at GI50 concentration (TBHP positive control 20 μM)
Description: To determine the presence of ROS in treated cells, a DCFDA/H2DCFDA-cellular ROS Assay Kit (Abcam, Cambridge, MA, USA) was utilised, as previously reported. The ROS potential of platinum(II) precursors and platinum(IV) scaffolds, which were determined using the same method, were also presented in this study for comparison.
Additionally, the ROS potential of the platinum(II) precursors and platinum(IV) scaffolds was determined previously and was presented here to allow for comparison (Table 10 and Figure 13). […] Treatment with the complexes and ligands was completed at each specific GI50 concentration. […]
dimethylthiazol-2-yl]-2,5-diphenyltetrazolium bromide) assay and absorbance was read at 540 nm. An eight-point dose response curve was produced from which the GI50 value was calculated, representing the drug concentration at which cell growth was inhibited by 50% based on the difference between the optical density values on day 0 and those at the end of drug exposure.
4. Reactive Oxygen Species (ROS) Potential
A total of 25,000 cells/mL of HT29 cells in DMEM were seeded in 96-well plates. Cells were washed with 1X kit buffer, and then stained with 25 μM 2’,7’-dichlorofluorescein diacetate (DCFH-DA) and incubated for 45 min. DCFH-DA was then removed, and cells were then re-washed with 1X kit buffer, after which phenol red free media was added.
Cells were then treated with a GI50 drug concentration for each complex. The plates were directly scanned to measure fluorescence (relative fluorescence units (RFU)) at different time points using the Glo-Max®-Multimode microplate reader (Promega Corporation, Alexandra, VIC, Australia) at an excitation/emission of 485/535 nm. […]

SJG2 glioblastoma = test: MTT growth inhibition, 72 h, SJG2; type: cell-based
Du145 prostate [1] = test: MTT growth inhibition, 72 h, Du145; type: cell-based; conditions: Du145, MTT, 72 h
[2] = system: non-tumour derived MCF10A breast line; test: MTT growth inhibition, 72 h, MCF10A; type: cell-based
[3] = system: ADDP ovarian variant (cisplatin-resistant A2780 clone); test: MTT growth inhibition, 72 h, ADDP; type: cell-based; conditions: ADDP, MTT, 72 h
BE2C neuroblastoma = test: MTT growth inhibition, 72 h, BE2C; type: cell-based; conditions: BE2C, MTT, 72 h
A2780 ovarian = test: MTT growth inhibition, 72 h, A2780; type: cell-based
U87 glioblastoma = test: MTT growth inhibition, 72 h, U87; type: cell-based
H460 lung = test: MTT growth inhibition, 72 h, H460; type: cell-based; conditions: H460, MTT, 72 h
MCF7 breast [4] = test: MTT growth inhibition, 72 h, MCF7; type: cell-based; conditions: MCF7, MTT, 72 h
Du145 prostate [5] = system: Du145 prostate; set-up: method as in PMID 36296713, PMID 36142383; conditions: cited from earlier work
MCF7 breast [6] = system: MCF7 breast; set-up: method as in PMID 36296713, PMID 36142383; conditions: cited from earlier work
[7] = system: ADDP ovarian variant (cisplatin-resistant A2780 clone); set-up: method as in PMID 36296713, PMID 36142383; conditions: cited from earlier work
[8] = Reduction with ascorbic acid (AsA) in PBS followed by 1H-NMR and 1D-195Pt-NMR; type: physicochemical; conditions: 37 °C; for Reduction Times T50%: estimated 50% reduction; for Reduction Times T50% / Reduction Times T100%: PBS in D2O; for Reduction Times T100%: estimated 100% reduction; for time of complete reduction to platinum(II) precursor: final 1D-195Pt-NMR at 400 ppm
Description: The reduction behaviour of 1–6 was probed via ^1H-NMR and 1D-^195Pt-NMR spectroscopy, as previously described (see Supplementary Materials).
The reduction behaviour of 1–6 was monitored by ^1H-NMR and 1D-^195Pt-NMR spectroscopy using previously established methods. Prior to the reduction measurements, each metal complex was dissolved with PBS in D2O only.
Based on the initial 1D-^195Pt-NMR spectra acquired (Figures S62 and S63), the structural integrity of the complexes was retained, and no signs of reduction were observed, thus also confirming that the PBS had no effect on the complexes. Subsequently, AsA was added in each solution containing the metal complex, PBS and D2O. Then, sequential ^1H-NMR experiments were undertaken for 1 h, followed by final 1D-^195Pt-NMR experiments measured within the regions of 400 and −2800 ppm (Figures S64–S75). The approximate time points for 1–6 at which an estimated 50 and 100% reduction had occurred, in the presence of AsA, as represented by T50% and T100%, are summarised in Table 8.
A sequence of 1H-NMR experiments was carried out for 1 h at 37 °C, followed by 1D-195Pt-NMR within the regions of –2800 and 400 ppm. An amount of 10 mM PBS (~7.4 pH) was transferred to a vial and reduced to dryness through rotary evaporation. AsA (~1 mg) was combined with the metal complex (~5 mg) and transferred to the vial containing the dried PBS. 600 μL of D2O was then added to the vial to dissolve the complex, AsA and the PBS together. Each reaction was followed at 37 °C until the complete reduction […]
The cell lines tested were: HT29 colon, U87 glioblastoma, MCF-7 breast, A2780 ovarian, H460 lung, A431 skin, Du145 prostate, BE2-C neuroblastoma, SJ-G2 glioblastoma, MIA pancreas, ADDP ovarian variant, and the non-tumour derived MCF10A breast line. In […]
agents were prepared in DMSO (30 mM stock solutions) and stored at −20 °C until use.
All cell lines were cultured in a humidified atmosphere 5% carbon dioxide at 37 °C. The cancer cell lines were maintained in Dulbecco’s modified Eagle’s medium (DMEM) (Trace Biosciences, Sydney, NSW, Australia) supplemented with 10% foetal bovine serum, 10 mM sodium bicarbonate penicillin (100 IU mL−1), streptomycin (100 μg mL−1) and glutamine (4 mM). The non-cancer MCF10A cell line was cultured in DMEM:F12 (1:1) cell culture media, 5% heat inactivated horse serum, supplemented with penicillin (50 IU mL−1), streptomycin (50 μg mL−1), 20 mM 4-(2-hydroxyethyl)-1-piperazineethanesulfonic acid (HEPES), L-glutamine (2 mM), epidermal growth factor (20 ng mL−1), hydrocortisone (500 ng mL−1), cholera toxin (100 ng mL−1) and insulin (10 μg mL−1). Cytotoxicity was determined by plating cells in duplicate in […] medium at a density of 2500 – 4000 cells per well in 96 well plates. On day 0 (24 h after plating) when the cells were in logarithmic growth, 100 μL of medium with or without the test agent

| Structure (SMILES) | GI50 (MIA pancreas) [nM] | ROS Production (HT29 colon cells; HT29, 24 h) [RFU] | ROS Production (HT29 colon cells; HT29, 48 h) [RFU] | ROS Production (HT29 colon cells; HT29, 72 h) | GI50 (U87 glioblastoma) [nM] | GI50 (Du145 prostate [5]) [nM] | GI50 (MCF7 breast [6]) [nM] | GI50 [7] [nM] | GI50 (SJG2 glioblastoma) [nM] | GI50 (Du145 prostate [1]) [nM] | Reduction Times T50% [8] [min] | Reduction Times T100% [8] | GI50 [2] [nM] | GI50 [3] [nM] | GI50 (BE2C neuroblastoma) [nM] | GI50 (A2780 ovarian) [nM] | GI50 (H460 lung) [nM] | GI50 (MCF7 breast [4]) [nM] | other results |
| --- | --- | --- | --- | --- | --- | --- | --- | --- | --- | --- | --- | --- | --- | --- | --- | --- | --- | --- | --- |
| COc1ccc2c(c1)c(CC(=O)OCC(=O)O)c(C)n2C(=O)c1ccc(Cl)cc1 [ACE, acemetacin] | > 50000 | 279 ± 7 | 260 ± 9 | 132 ± 13 RFU | > 50000 |  |  |  |  |  |  |  |  |  |  |  |  |  | GI50 (SJG2 glioblastoma; SJ-G2): > 50000 nM; GI50 (Du145 prostate [1]; Homo sapiens, DU-145): > 50000 nM; GI50 ([2]; Homo sapiens, MCF-10A): > 50000 nM; GI50 ([3]; Cisplatin-resistant A2780): > 50000 nM; GI50 (BE2C neuroblastoma; Homo sapiens, BE(2)-C): > 50000 nM; GI50 (A2780 ovarian; Homo sapiens): > 50000 nM; GI50 (H460 lung; Homo sapiens, NCI-H460): > 50000 nM; GI50 (MCF7 breast [4]; Homo sapiens): > 50000 nM |
| N.N.[Cl][Pt][Cl] [Cisplatin, cis-diamminedichloroplatinum(II)] |  | 299 ± 25 | 370 ± 22 | 392 ± 21 RFU |  | 1200 ± 100 | 6500 ± 800 | 28000 |  |  |  |  |  |  |  |  |  |  |  |
| COc1ccc2cc([C@H](C)C(=O)[O][Pt+2]3([OH])[N]4C=CC=c5ccc6c(c54)[N]3C=CC=6)ccc2c1.N[C@H]1CCCC[C@@H]1N [Complex 1, [Pt^IV(phen)(SS-DACH)(NPX)(OH)]^2+] | 660 ± 100 | 235 ± 23 | 215 ± 19 | 63 RFU and 63 ± 7 RFU | 2570 ± 440 |  |  |  | 1570 ± 67 | 230 ± 17 | 20 to 25 | post 60 min | 450 ± 24 | 400 ± 19 | 1470 ± 67 | 420 ± 50 | 860 ± 124 | 1120 ± 342 |  |
| COc1ccc2cc([C@H](C)C(=O)[O][Pt+2]3([OH])[N]4C=CC=c5cc(C)c6c(c54)[N]3C=CC=6)ccc2c1.N[C@H]1CCCC[C@@H]1N (stereo partly shown) [Complex 2, [Pt^IV(5-Mephen)(SS-DACH)(NPX)(OH)]^2+] | 370 ± 54 | 290 ± 17 | 261 ± 15 | 84 RFU and 84 ± 9 RFU | 1330 ± 190 |  |  |  | 620 ± 43 | 130 ± 27 | 10 to 15 | post 60 min | 310 ± 12 | 280 ± 27 | 680 ± 17 | 290 ± 56 | 410 ± 37 | 720 ± 240 | time of complete reduction to platinum(II) precursor [8]: ~ 1.5 h |
| COc1ccc2cc([C@H](C)C(=O)[O][Pt+2]3([OH])[N]4C=CC=c5c(C)c(C)c6c(c54)[N]3C=CC=6)ccc2c1.N[C@H]1CCCC[C@@H]1N [Complex 3, [Pt^IV(5,6-Me2phen)(SS-DACH)(NPX)(OH)]^2+] | 47 ± 7 | 297 ± 21 | 287 ± 11 | 104 RFU and 104 ± 15 RFU | 180 ± 23 |  |  |  | 230 ± 18 | 10 ± 2 | 10 to 15 | post 60 min | 36 ± 4 | 25 ± 2 | 220 ± 12 | 39 ± 9 | 56 ± 5 | 60 ± 22 | time of complete reduction to platinum(II) precursor [8]: ~ 1.5 h |
| Cc1cc2c3c4c1=CC=C[N]4[Pt+2][N]3C=CC=2.N[C@H]1CCCC[C@@H]1N [Complex 5MESS] |  |  |  |  |  | 22 ± 3 | 200 ± 12 | 34 ± 2 |  |  |  |  |  |  |  |  |  |  |  |
| Cc1c(C)c2cccnc2c2ncccc12.N[C@H]1CCCC[C@@H]1N.[Pt] [Complex 56MESS, [Pt^II(5,6-Me2phen)(SS-DACH)]^2+] |  |  |  |  |  | 4.6 ± 0.4 | 93 ± 44 | 13 ± 2 |  |  |  |  |  |  |  |  |  |  |  |
| COc1ccc2cc([C@H](C)C(=O)O)ccc2c1 [NPX, naproxen] | > 50000 | 187 ± 12 | 178 ± 13 | 15 ± 5 RFU | > 50000 |  |  |  |  |  |  |  |  |  |  |  |  |  | GI50 (SJG2 glioblastoma; SJ-G2): > 50000 nM; GI50 (Du145 prostate [1]; Homo sapiens, DU-145): > 50000 nM; GI50 ([2]; Homo sapiens, MCF-10A): > 50000 nM; GI50 ([3]; Cisplatin-resistant A2780): > 50000 nM; GI50 (BE2C neuroblastoma; Homo sapiens, BE(2)-C): > 50000 nM; GI50 (A2780 ovarian; Homo sapiens): > 50000 nM; GI50 (H460 lung; Homo sapiens, NCI-H460): > 50000 nM; GI50 (MCF7 breast [4]; Homo sapiens): > 50000 nM |
| C1=C[N]2[Pt+2][N]3C=CC=c4ccc(c2c43)=C1.N[C@H]1CCCC[C@@H]1N [PHENSS] |  |  |  |  |  | 100 ± 38 | 1500 ± 500 | 190 ± 47 |  |  |  |  |  |  |  |  |  |  |  |
